Reference: patent publication US20130296346A1, “DIPHENYL-AMINE DERIVATIVES: USES, PROCESS OF SYNTHESIS AND PHARMACEUTICAL COMPOSITIONS” (Faes Farma, S.A., priority 2010, published 2013)
Entries after “also recorded” stand apart in the source; their conditions may differ. Marks after values point to notes of the source that are not given here.

How the values were obtained:
[1] = test system: colorectal cancer cells from patients with Kras mutation; assay: Mutated Kras colon cancer orthotopic animal model; assay type: in vivo, mice; settings: compared with vehicle control, FIG. 4A
Description: Using an animal model based on colorectal cancer cells from patients with Kras mutation, implanted on mice in the colon area (Yao, M. Cyclooxygenase-2 selective inhibition with NS-398 suppresses proliferation and invasiveness and delays liver metastasis in colorectal cancer. Br. J. Cancer, 2004 Feb. 9; 90(3):712-9), the effects of Compound 3 were tested.

MOSEC IDB cells = assay: Ovarian tumor orthotopic animal model; assay type: in vivo, mice; settings: 30 mg/Kg i.p. 5 days per week during 2 weeks
Description: Experiments were performed using MOSEC IDB cells (mouse ovarian surface epithelial cells) with cloned luciferase reporter and cells implanted on mice ovarian region (Yu-Hung Huang et al, Claudin-3 gene silencing with siRNA suppresses ovarian tumor growth and metastasis. 3426-3430 PNAS 2009. vol. 106, no. 9).
FIG. 6A represents a Pet picture of luciferase activity in vivo tumor (Compound 3 treated mice: 30 mg/Kg i.p. 5 days per week during 2 weeks).

[2] = Cytotoxicity for human non-tumoral cells, XTT; assay type: cell-based; settings: HUVEC cells (primary, from human cords)
Description: (§1) The cytotoxicity of the compounds for human non-tumoral cells was studied in fibroblasts, HUVEC cells and resting PBLs (Peripheral Blood lymphocytes).
HUVEC cells were obtained by treating human cords with collagenase type I, […] in Hank's medium incubating 20 minutes at 37° C. Cells were collected afterwards and cultivated in medium M199 with supplements of 20% FBS, 1% P/S and 25 mg/500 ml of medium ECGF, Cells were grown on a 0.2% gelatin matrix.
(§2) Distinct amounts of exponentially growing cells were seeded in 96-well flat-bottomed microtiter plates in a final volume of 100 μl were seeded in 96-well flat-bottomed microtiter plates, and incubated at 37° C. in a humidified atmosphere of 5% CO2/95% air for 24 h to allow the cells attach to the plates. Then, cells were incubated with different concentrations of the assayed compound at 37° C. under the 5% CO2/95% air atmosphere for 72 h. Cell proliferation was quantified using the XTT cell proliferation kit (Roche Molecular Biochemicals, Mannheim, Germany) following the manufacturer's instructions. Briefly, a freshly prepared mixture solution (50 μl) of XTT labelling reagent and PMS (N-methyldibenzopyrazine methyl sulfate) electron coupling reagent was added to each well. The resulting mixtures were further incubated for 4 h in a humidified atmosphere (37° C., 5% CO2), and the absorbance of the formazan product generated was measured with a microtiter plate reader at a test wavelength of 490 nm and a reference wavelength of 655 nm. The IC50 (50% inhibitory concentration) was then calculated as the drug concentration causing a 50% inhibition of cell proliferation. Data are shown as mean values of four independent experiments each performed in triplicate.

EHEB cells [3] = assay: Chronic lymphocytic leukaemia xenograft animal model; assay type: in vivo, CB17-SCID mice
Description: The chronic lymphocytic leukaemia (CLL) EHEB cell line was cultured in RPMI-1640 medium containing 10% (v/v) heat-inactivated fetal bovine serum, 2 mM L-glutamine, 100 U/ml penicillin, and 100 μg/ml streptomycin at 37° C. in humidified 95% air and 5% CO2. Cells were periodically tested for Mycoplasma infection and found to be negative. CB17-severe combined immunodeficiency (SCID) mice (Charles River laboratories, Lyon, France), kept and handled according to institutional guidelines, complying with Spanish legislation under a 12/12 h light/dark cycle at a temperature of 22° C., received a standard diet and acidified water ad libitum. CB17-SCID mice were inoculated subcutaneously into their lower dorsum with 1.5×10^7 EHEB cells in 100 μl PBS and 100 μl Matrigel basement membrane matrix (Becton Dickinson). When tumors were palpable, mice were randomly assigned into cohorts of 10 mice each, receiving i.v. administration (3 times/week) of the compound at the tail. The volume used for each i. v. administration was […] rendering a final drug concentration of 2.5 mg/kg (body weight). Mice i. v. administered with an equal volume of vehicle were run in parallel. The shortest and longest diameter of the tumor were measured with calipers, and tumor volume (10^−3 cm^3) was calculated using the following standard formula: (the shortest diameter)^2×(the longest diameter)×0.5. Animals were sacrificed, according to institutional guidelines, when the diameter of their tumors reached 3 cm or when significant toxicity was observed. Animal body weight and any sign of morbidity were monitored. Drug treatment lasted for 41 days. Then, tumor xenografts were isolated, measured and weighed, and a necropsy analysis involving tumors and distinct organs was carried out. All values were expressed as means±SD. Statistical differences between groups were assessed using the Mann-Whitney test or the Student's t-test. A p value of less than 0.05 was considered statistically significant. Results are depicted in FIG. 1.

[4] = Cytotoxicity for human non-tumoral cells, XTT; assay type: cell-based; settings: Fibroblasts
Description: as §1, §2

[5] = test system: haematological cancer cell lines; assay: Apoptosis induction in haematological cancer cell lines; assay type: cell-based
EHEB cells [6] = assay: Expression of proteins by immunoblotting in EHEB cells; assay type: cell-based, human; settings: 10 μM
Description: Expression of different proteins in Compound 3-treated EHEB cells (FIG. 7B). Cells were treated with 10 μM Compound 3 for the indicated times and analyzed by immunoblotting with specific antibodies for the indicated proteins. The migration positions of the different proteins are indicated. β-actin was used as a loading control. Data shown are representative of three experiments performed.

[7] = test system: human patient chronic lymphocytic leukaemia cells; assay: Viability of chronic lymphocytic leukaemia cells from patients; assay type: cell-based; settings: cells with different ZAP70 expression
Description: A panel of 6 human patient chronic lymphocytic leukaemia cells was chosen showing different patterns of ZAP70 expression (see cytogenetic changes notated in the table 5). Cells were incubated in the presence of compound 3. Results of this study, showing the viability are depicted in FIG. 3.

resting human PBLs = assay: Apoptosis of resting human PBLs; assay type: cell-based
Description: To isolate normal peripheral blood lymphocytes (PBLs), mononuclear cells were obtained from fresh human peripheral blood from healthy volunteers by centrifugation on Ficoll-Hypaque density gradients, washed with phosphate-buffered saline (PBS), and resuspended in RPMI-1640 medium containing 10% (v/v) heat-inactivated FBS, 2 mM L-glutamine, 100 U/ml penicillin, and 100 μg/ml streptomycin as described (Cabaner et al. Br. J. Pharmacol 127:813-825.1999). Monocytes were depleted by culture dish adherence after overnight incubation. Nonadherent cells (lymphocytes) were washed with PBS and collected. PBL preparations were typically 70-75% CD3^+, 24-29% CD 19^+, and less than 0.4% CD 14^+.

[8] = 2.5 mg/kg i.v. 3 times/week, 41 days
[9] = ex vivo after 41 days, 2.5 mg/kg i.v. 3 times/week
[10] = vs control, 2.5 mg/kg i.v. 3 times/week, 41 days

**Q.** For `Fc1ccc(CNCCCC=C(c2ccccc2)c2ccccc2)cc1` [Compound 3, (5,5-diphenyl-pent-4-enyl)-(4-fluoro-benzyl)-amine hydrocloride], which “tumour volume of human colorectal cancer” value [1] is on record?
**A.** clear reduction effect of the tumour volume

**Q.** What about the “in vivo antitumor activity, ovarian tumor area” value (MOSEC IDB cells) of the same molecule?
**A.** potent in vivo antitumor activity reducing the tumor area

**Q.** What about the IC50 at 72 h [2] of the same molecule?
**A.** 16 µM

**Q.** What about the “CLL tumor growth compared with the control group” value (EHEB cells [3]; [8]) of the same molecule?
**A.** inhibited CLL tumor growth; also recorded: stadistically significant

**Q.** What about the “necropsy analysis of distinct organs” value (EHEB cells [3]; [8]) of the same molecule?
**A.** No significant events or changes in the distinct organs

**Q.** What about the “vascularization of isolated tumors” value (EHEB cells [3]; compared to drug-free tumor-bearing control mice) of the same molecule?
**A.** very little vascularization

**Q.** And the “Tumor Volume” value (EHEB cells [3]; [9])?
**A.** 0.487 cm^3

**Q.** What about the “Tumor Weight” value (EHEB cells [3]; [9]) of the same molecule?
**A.** 0.932 g

**Q.** What about the “Inhibition (%) of Tumor Volume” value (EHEB cells [3]; [10]) of the same molecule?
**A.** 74.88** %

**Q.** And the “Inhibition (%) of Tumor Weight” value (EHEB cells [3]; [10])?
**A.** 50.69** %

**Q.** What about the IC50 at 72 h [4] of the same molecule?
**A.** 19 µM

**Q.** What about the “concentration inducing apoptosis in haematological cancer cell lines” value [5] of the same molecule?
**A.** ~10^−6 M

**Q.** And the caspase-3 (EHEB cells [6])?
**A.** activation

**Q.** And the “cleavage of PARP” value (EHEB cells [6])?
**A.** rapid cleavage

**Q.** And the Caspase-4 (EHEB cells [6]; EHEB cells)?
**A.** activated

**Q.** And the caspase-9 (EHEB cells [6]; EHEB cells)?
**A.** activated

**Q.** And the “induction of autophagy (LC3-II formation)” value (EHEB cells [6]; EHEB cells)?
**A.** very rapid and potent induction of autophagy

**Q.** And the “decrease of viability of patient CLL cells” value [7]?
**A.** more significant in cell with a low expression of ZAP70

**Q.** And the “% Apoptosis PBLs” value (resting human PBLs; 10^−4 M)?
**A.** 7.5%

**Q.** And the “% Apoptosis PBLs” value (resting human PBLs; 10^−5 M)?
**A.** 1.3%

**Q.** And the “effect on PBLs” value (resting human PBLs; even at 10^−4 M)?
**A.** hardly affect PBLs
